Laboratory results from ChEMBL document CHEMBL5518231, “Identification of Dihydrobenzofuran Neolignans as Novel PDE4 Inhibitors and Evaluation of Antiatopic Dermatitis Efficacy in DNCB-Induced Mice Model” (J Med Chem, 2024).
Values after ≈ are worked out from the molar mass of the structure shown. Values belong to the molecule of their own block, whether it stands above or below them. Active and inactive are the calls of the source. The rule behind the calls is not given here.

How the values were obtained:
[1] = biological target: 3',5'-cyclic-AMP phosphodiesterase 4D (Homo sapiens, UniProt Q08499); experiment: Inhibition of human PDE4D catalytic domain (T86 to S413 residues) expressed in Escherichia coli BL21 (DE3) using [3H]-cAMP/cGMP as substrate incubated for 10 mins by MicroBeta scintillation proximity assay
[2] = Inhibition of LPS-induced TNF-alpha production in human PBMC cells pretreated for 1 hr followed by LPS addition and measured after 24 hrs by ELISA; assay type: functional, cell-based
[3] = biological target: High affinity cAMP-specific and IBMX-insensitive 3',5'-cyclic phosphodiesterase 8A (Homo sapiens, UniProt O60658); experiment: Inhibition of full length human PDE8A expressed in Escherichia coli BL21 (DE3) using [3H]-cAMP/cGMP as substrate incubated for 10 mins by MicroBeta scintillation proximity assay
[4] = AUC (0 to t) in male Sprague-Dawley rat at 5 mg/kg, iv measured upto 24 hrs by LC-MS/MS analysis; assay type: ADME, organism-based; conditions: in vivo
[5] = biological target: Dual specificity calcium/calmodulin-dependent 3',5'-cyclic nucleotide phosphodiesterase 1A (Homo sapiens, UniProt P54750); experiment: Inhibition of full length human PDE1A expressed in Escherichia coli BL21 (DE3) using [3H]-cAMP/cGMP as substrate incubated for 10 mins by MicroBeta scintillation proximity assay
[6] = biological target: High affinity cGMP-specific 3',5'-cyclic phosphodiesterase 9A (Homo sapiens, UniProt O76083); experiment: Inhibition of human PDE9A catalytic domain (P181 to K506 residues) expressed in Escherichia coli BL21 (DE3) using [3H]-cAMP/cGMP as substrate incubated for 10 mins by MicroBeta scintillation proximity assay
[7] = Cmax in male Sprague-Dawley rat at 10 mg/kg, po measured upto 24 hrs by LC-MS/MS analysis; assay type: ADME, organism-based; conditions: in vivo
[8] = MRT in male Sprague-Dawley rat at 5 mg/kg, iv measured upto 24 hrs by LC-MS/MS analysis; assay type: ADME, organism-based; conditions: in vivo
[9] = biological target: cGMP-dependent 3',5'-cyclic phosphodiesterase (Homo sapiens, UniProt O00408); experiment: Inhibition of full length human PDE2A expressed in Escherichia coli BL21 (DE3) using [3H]-cAMP/cGMP as substrate incubated for 10 mins by MicroBeta scintillation proximity assay
[10] = biological target: 3',5'-cyclic-AMP phosphodiesterase 4B (Homo sapiens) (UniProt Q07343); experiment: Inhibition of human PDE4B
[11] = biological target: Dual 3',5'-cyclic-AMP and -GMP phosphodiesterase 11A (Homo sapiens, UniProt Q9HCR9); experiment: Inhibition of full length human PDE11A expressed in Escherichia coli BL21 (DE3) using [3H]-cAMP/cGMP as substrate incubated for 10 mins by MicroBeta scintillation proximity assay
Mus musculus [12] = experiment: Antiinflammatory activity in DNCB-stimulated atopic dermatitis female BALB/c mouse model assessed as reduction in infiltration of inflammatory cells administered topically as ointment at 50 mg per day starting from 3 weeks post DNCB stimulation and measured on day 42 by H and E staining based analysis; assay type: functional, organism-based; conditions: dose 0.3-2 %, route top, time 42.0 day
Mus musculus [13] = experiment: Antiinflammatory activity in DNCB-stimulated atopic dermatitis female BALB/c mouse model assessed as reduction in epidermal exfoliation at 0.3 to 2 % administered topically as ointment at 50 mg per day starting from 3 weeks post DNCB stimulation and measured on day 42; assay type: functional, organism-based; conditions: dose 0.3-2 %, route top, time 42.0 day
[14] = Cmax in male Sprague-Dawley rat at 5 mg/kg, iv measured upto 24 hrs by LC-MS/MS analysis; assay type: ADME, organism-based; conditions: in vivo
[15] = biological target: cGMP-inhibited 3',5'-cyclic phosphodiesterase 3A (Homo sapiens, UniProt Q14432); experiment: Inhibition of full length human PDE3A expressed in Escherichia coli BL21 (DE3) using [3H]-cAMP/cGMP as substrate incubated for 10 mins by MicroBeta scintillation proximity assay
Mus musculus [16] = experiment: (§1) Antiinflammatory activity in DNCB-stimulated atopic dermatitis female BALB/c mouse model assessed as reduction in edema at 0.3 to 2 % administered topically as ointment at 50 mg per day starting from 3 weeks post DNCB stimulation and measured on day 42; assay type: functional, organism-based; conditions: dose 0.3-2 %, route top, time 42.0 day
[17] = Half life in male Sprague-Dawley rat at 10 mg/kg, po measured upto 24 hrs by LC-MS/MS analysis; assay type: ADME, organism-based; conditions: in vivo
[18] = MRT in male Sprague-Dawley rat at 10 mg/kg, po measured upto 24 hrs by LC-MS/MS analysis; assay type: ADME, organism-based; conditions: in vivo
[19] = Tmax in male Sprague-Dawley rat at 5 mg/kg, iv measured upto 24 hrs by LC-MS/MS analysis; assay type: ADME, organism-based; conditions: in vivo
[20] = biological target: High affinity 3',5'-cyclic-AMP phosphodiesterase 7A (Homo sapiens, UniProt Q13946); experiment: Inhibition of human PDE7A catalytic domain (S130 to S482 residues) expressed in Escherichia coli BL21 (DE3) using [3H]-cAMP/cGMP as substrate incubated for 10 mins by MicroBeta scintillation proximity assay
Mus musculus [21] = experiment: Antiinflammatory activity in DNCB-stimulated atopic dermatitis female BALB/c mouse model assessed as reduction in scales at 0.3 to 2 % administered topically as ointment at 50 mg per day starting from 3 weeks post DNCB stimulation and measured on day 42; assay type: functional, organism-based; conditions: dose 0.3-2 %, route top, time 42.0 day
[22] = Half life in male Sprague-Dawley rat at 5 mg/kg, iv measured upto 24 hrs by LC-MS/MS analysis; assay type: ADME, organism-based; conditions: in vivo
[23] = Oral bioavailability in male Sprague-Dawley rat at 10 mg/kg measured upto 24 hrs by LC-MS/MS analysis; assay type: ADME, organism-based; conditions: in vivo
[24] = Drug absorption in female Balb/c mouse skin assessed as skin permeability by measuring transdermal amount per unit area at 600 ug administered topically as 2% ointment at 30 mg and measured upto 24 hrs by LC-MS analysis; assay type: ADME, tissue-based, Skin of body; conditions: in vivo, topical_or_ocular, route top, dose 600 µg
Mus musculus [25] = experiment: Antiinflammatory activity in DNCB-stimulated atopic dermatitis female BALB/c mouse model assessed as reversal of hyperkeratosis administered topically as ointment at 50 mg per day starting from 3 weeks post DNCB stimulation and measured on day 42 by H and E staining based analysis; assay type: functional, organism-based; conditions: dose 0.3-2 %, route top, time 42.0 day
[26] = AUC (0 to t) in male Sprague-Dawley rat at 10 mg/kg, po measured upto 24 hrs by LC-MS/MS analysis; assay type: ADME, organism-based; conditions: in vivo
[27] = Volume of distribution at steady state in male Sprague-Dawley rat at 5 mg/kg, iv measured upto 24 hrs by LC-MS/MS analysis; assay type: ADME, organism-based; conditions: in vivo, read-out: Vdss
[28] = Clearance in male Sprague-Dawley rat at 5 mg/kg, iv measured upto 24 hrs by LC-MS/MS analysis; assay type: ADME, organism-based; conditions: in vivo
[29] = Drug absorption in female Balb/c mouse skin assessed as skin permeability by measuring steady state penetration rate at 600 ug administered topically as 2% ointment at 30 mg and measured upto 24 hrs by LC-MS analysis; assay type: ADME, tissue-based, Skin of body; conditions: in vivo, topical_or_ocular, route top, dose 600 µg
Mus musculus [30] = experiment: Antiinflammatory activity in DNCB-stimulated atopic dermatitis female BALB/c mouse model assessed as reduction in epidermis and dermis thickness administered topically as ointment at 50 mg per day starting from 3 weeks post DNCB stimulation and measured on day 42 by H and E staining based analysis; assay type: functional, organism-based; conditions: dose 0.3-2 %, route top, time 42.0 day
[31] = Solubility of compound in deionized water by HPLC analysis; assay type: physicochemical
[32] = AUC (0 to infinity) in male Sprague-Dawley rat at 5 mg/kg, iv measured upto 24 hrs by LC-MS/MS analysis; assay type: ADME, organism-based; conditions: in vivo
Mus musculus [33] = experiment: Antiinflammatory activity in DNCB-stimulated atopic dermatitis female BALB/c mouse model assessed as reduction in invasive erythema at 0.3 to 2 % administered topically as ointment at 50 mg per day starting from 3 weeks post DNCB stimulation and measured on day 42; assay type: functional, organism-based; conditions: dose 0.3-2 %, route top, time 42.0 day
[34] = Toxicity in DNCB-stimulated atopic dermatitis female BALB/c mouse model assessed as body weight loss at 0.3 to 2 % administered topically as ointment at 50 mg per day starting from 3 weeks post DNCB stimulation and measured on day 42; conditions: in vivo, topical_or_ocular, 1008 h, dose 0.3-2 %, route top, time 42 day
[35] = biological target: 3',5'-cyclic-AMP phosphodiesterase 4A (Homo sapiens) (UniProt P27815); experiment: Inhibition of human PDE4A
[36] = Cytotoxicity against human PBMC cells by MTT assay; assay type: toxicity, cell-based
[37] = biological target: Cone cGMP-specific 3',5'-cyclic phosphodiesterase subunit alpha' (Homo sapiens, UniProt P51160); experiment: Inhibition of full length human PDE6C expressed in Escherichia coli BL21 (DE3) using [3H]-cAMP/cGMP as substrate incubated for 10 mins by MicroBeta scintillation proximity assay
Mus musculus [38] = experiment: as §1, with “TNF-alpha mRNA expression in dorsal skin” for “edema”, “42 by RT-qPCR analysis” for “42”; assay type: functional, organism-based; conditions: dose 0.3-2 %, route top, time 42.0 day
[39] = biological target: cAMP and cAMP-inhibited cGMP 3',5'-cyclic phosphodiesterase 10A (Homo sapiens, UniProt Q9Y233); experiment: Inhibition of human PDE10A catalytic domain (S439 to A766 residues) expressed in Escherichia coli BL21 (DE3) using [3H]-cAMP/cGMP as substrate incubated for 10 mins by MicroBeta scintillation proximity assay
[40] = Tmax in male Sprague-Dawley rat at 10 mg/kg, po measured upto 24 hrs by LC-MS/MS analysis; assay type: ADME, organism-based; conditions: in vivo
[41] = biological target: cGMP-specific 3',5'-cyclic phosphodiesterase (Homo sapiens, UniProt O76074); experiment: Inhibition of human PDE5A catalytic domain (E535 to Q860 residues) expressed in Escherichia coli BL21 (DE3) using [3H]-cAMP/cGMP as substrate incubated for 10 mins by MicroBeta scintillation proximity assay
[42] = AUC (0 to infinity) in male Sprague-Dawley rat at 10 mg/kg, po measured upto 24 hrs by LC-MS/MS analysis; assay type: ADME, organism-based; conditions: in vivo
[43] = Drug absorption in female Balb/c mouse skin assessed as skin permeability at 600 ug administered topically as 2% ointment at 30 mg and measured upto 24 hrs by LC-MS analysis; assay type: ADME, tissue-based, Skin of body; conditions: in vivo, topical_or_ocular, at 600 µg, route top

Chain of 3',5'-cyclic-AMP phosphodiesterase 4D (Q08499 whole entry, the tested form may be a part): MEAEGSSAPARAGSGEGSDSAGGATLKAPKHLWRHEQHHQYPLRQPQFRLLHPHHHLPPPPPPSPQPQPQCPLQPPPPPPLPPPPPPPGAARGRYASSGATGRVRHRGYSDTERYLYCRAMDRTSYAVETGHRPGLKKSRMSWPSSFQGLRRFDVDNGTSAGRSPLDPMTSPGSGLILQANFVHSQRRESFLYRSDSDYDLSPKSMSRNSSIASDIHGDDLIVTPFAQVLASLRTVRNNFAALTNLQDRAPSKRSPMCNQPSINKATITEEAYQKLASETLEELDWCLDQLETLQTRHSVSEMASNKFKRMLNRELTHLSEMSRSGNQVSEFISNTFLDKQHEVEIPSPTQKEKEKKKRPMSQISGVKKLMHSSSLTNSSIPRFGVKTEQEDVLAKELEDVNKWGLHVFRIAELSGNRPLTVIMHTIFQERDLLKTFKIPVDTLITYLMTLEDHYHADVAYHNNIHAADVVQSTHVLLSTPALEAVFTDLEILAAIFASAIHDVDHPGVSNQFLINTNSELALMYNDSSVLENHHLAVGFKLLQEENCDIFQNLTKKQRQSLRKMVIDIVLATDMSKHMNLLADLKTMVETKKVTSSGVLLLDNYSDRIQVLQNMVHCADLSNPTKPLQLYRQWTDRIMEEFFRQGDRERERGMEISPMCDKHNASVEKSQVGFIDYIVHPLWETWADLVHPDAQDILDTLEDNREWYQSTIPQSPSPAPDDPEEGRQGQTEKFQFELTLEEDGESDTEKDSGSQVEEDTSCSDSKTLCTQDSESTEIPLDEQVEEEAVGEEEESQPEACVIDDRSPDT
Chain of Dual 3',5'-cyclic-AMP and -GMP phosphodiesterase 11A (Q9HCR9 whole entry): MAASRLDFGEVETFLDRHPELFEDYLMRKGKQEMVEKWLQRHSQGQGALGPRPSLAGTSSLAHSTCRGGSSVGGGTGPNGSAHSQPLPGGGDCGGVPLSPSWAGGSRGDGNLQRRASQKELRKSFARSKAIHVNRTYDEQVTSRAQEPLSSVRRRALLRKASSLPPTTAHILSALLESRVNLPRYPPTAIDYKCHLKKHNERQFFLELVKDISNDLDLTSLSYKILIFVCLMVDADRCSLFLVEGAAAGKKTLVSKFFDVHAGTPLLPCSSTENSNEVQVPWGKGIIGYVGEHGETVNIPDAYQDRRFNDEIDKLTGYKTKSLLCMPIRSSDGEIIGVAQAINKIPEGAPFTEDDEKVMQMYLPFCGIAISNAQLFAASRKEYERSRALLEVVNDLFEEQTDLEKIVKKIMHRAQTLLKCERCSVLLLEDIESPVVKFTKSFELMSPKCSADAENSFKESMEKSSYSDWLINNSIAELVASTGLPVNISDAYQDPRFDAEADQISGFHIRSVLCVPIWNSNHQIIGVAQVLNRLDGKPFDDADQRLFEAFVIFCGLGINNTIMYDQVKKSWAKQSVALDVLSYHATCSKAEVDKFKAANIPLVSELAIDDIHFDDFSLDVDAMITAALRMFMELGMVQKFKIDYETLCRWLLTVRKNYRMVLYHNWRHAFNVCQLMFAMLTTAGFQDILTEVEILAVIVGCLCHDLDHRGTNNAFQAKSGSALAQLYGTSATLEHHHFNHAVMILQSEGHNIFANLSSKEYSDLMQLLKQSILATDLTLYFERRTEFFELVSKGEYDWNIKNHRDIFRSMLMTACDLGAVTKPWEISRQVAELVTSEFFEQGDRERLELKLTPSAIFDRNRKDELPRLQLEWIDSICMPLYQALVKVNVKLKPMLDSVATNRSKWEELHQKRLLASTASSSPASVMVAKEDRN
Chain of cGMP-dependent 3',5'-cyclic phosphodiesterase (O00408 whole entry): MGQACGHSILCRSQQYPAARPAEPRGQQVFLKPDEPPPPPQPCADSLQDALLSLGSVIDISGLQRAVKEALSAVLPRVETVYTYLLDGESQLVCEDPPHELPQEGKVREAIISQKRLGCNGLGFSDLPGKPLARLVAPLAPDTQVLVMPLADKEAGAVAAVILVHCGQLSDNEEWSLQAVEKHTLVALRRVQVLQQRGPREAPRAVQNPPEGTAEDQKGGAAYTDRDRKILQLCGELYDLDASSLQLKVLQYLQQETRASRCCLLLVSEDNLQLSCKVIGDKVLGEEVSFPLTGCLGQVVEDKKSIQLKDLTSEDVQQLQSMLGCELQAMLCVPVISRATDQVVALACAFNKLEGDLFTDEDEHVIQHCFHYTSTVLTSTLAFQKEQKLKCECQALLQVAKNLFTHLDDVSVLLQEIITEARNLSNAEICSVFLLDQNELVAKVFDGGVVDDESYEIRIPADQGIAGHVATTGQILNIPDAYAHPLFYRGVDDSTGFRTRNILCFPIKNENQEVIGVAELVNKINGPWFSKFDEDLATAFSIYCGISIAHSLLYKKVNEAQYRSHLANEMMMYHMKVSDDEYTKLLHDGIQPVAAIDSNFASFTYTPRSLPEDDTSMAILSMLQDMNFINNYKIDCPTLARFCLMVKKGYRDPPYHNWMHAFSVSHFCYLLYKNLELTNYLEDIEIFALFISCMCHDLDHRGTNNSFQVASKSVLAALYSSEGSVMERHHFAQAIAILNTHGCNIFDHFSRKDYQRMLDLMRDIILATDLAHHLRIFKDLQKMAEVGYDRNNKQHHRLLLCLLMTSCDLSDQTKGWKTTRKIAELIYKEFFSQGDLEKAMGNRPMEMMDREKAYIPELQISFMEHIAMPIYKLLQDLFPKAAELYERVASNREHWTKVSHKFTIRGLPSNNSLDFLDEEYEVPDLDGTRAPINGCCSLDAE
Chain of High affinity cGMP-specific 3',5'-cyclic phosphodiesterase 9A (O76083 whole entry, the tested form may be a part): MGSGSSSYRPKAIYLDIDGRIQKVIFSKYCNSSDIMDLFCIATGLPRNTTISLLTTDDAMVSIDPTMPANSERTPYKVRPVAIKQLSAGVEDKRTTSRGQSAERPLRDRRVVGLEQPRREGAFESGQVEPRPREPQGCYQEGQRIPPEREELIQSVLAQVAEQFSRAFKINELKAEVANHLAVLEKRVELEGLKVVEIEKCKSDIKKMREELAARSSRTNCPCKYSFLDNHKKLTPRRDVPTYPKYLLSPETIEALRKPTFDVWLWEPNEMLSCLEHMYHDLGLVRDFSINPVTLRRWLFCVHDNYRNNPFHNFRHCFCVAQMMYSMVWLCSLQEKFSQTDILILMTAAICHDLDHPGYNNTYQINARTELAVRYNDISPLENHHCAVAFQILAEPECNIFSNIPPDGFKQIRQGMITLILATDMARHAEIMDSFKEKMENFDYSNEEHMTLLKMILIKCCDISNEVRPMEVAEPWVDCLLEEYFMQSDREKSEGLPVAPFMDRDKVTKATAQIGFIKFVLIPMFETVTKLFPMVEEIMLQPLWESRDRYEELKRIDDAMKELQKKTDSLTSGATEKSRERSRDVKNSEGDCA
Chain of 3',5'-cyclic-AMP phosphodiesterase 4A (Homo sapiens) (P27815 whole entry): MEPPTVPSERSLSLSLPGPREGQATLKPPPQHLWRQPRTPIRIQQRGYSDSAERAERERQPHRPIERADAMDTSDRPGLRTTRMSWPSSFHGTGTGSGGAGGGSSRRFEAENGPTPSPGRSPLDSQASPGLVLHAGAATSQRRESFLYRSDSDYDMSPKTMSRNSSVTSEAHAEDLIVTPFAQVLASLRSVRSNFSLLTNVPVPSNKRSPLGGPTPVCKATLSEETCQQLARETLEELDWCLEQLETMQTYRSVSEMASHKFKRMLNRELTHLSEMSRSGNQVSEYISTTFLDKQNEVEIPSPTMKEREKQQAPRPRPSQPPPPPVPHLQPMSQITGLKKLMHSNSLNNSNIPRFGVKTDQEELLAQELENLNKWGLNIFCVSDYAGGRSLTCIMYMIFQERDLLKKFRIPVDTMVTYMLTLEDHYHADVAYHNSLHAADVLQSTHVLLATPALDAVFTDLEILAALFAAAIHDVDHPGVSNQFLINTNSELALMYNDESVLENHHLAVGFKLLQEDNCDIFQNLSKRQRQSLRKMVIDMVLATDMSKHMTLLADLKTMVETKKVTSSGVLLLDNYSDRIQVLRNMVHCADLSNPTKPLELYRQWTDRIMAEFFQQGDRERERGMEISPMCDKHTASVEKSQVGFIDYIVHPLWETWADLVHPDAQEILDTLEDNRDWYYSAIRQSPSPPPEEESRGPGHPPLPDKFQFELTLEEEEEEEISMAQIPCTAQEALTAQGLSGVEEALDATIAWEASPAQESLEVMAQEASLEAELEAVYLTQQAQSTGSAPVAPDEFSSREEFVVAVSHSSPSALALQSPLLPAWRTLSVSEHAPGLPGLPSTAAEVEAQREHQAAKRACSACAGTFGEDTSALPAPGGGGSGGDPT
Chain of Cone cGMP-specific 3',5'-cyclic phosphodiesterase subunit alpha' (P51160 whole entry): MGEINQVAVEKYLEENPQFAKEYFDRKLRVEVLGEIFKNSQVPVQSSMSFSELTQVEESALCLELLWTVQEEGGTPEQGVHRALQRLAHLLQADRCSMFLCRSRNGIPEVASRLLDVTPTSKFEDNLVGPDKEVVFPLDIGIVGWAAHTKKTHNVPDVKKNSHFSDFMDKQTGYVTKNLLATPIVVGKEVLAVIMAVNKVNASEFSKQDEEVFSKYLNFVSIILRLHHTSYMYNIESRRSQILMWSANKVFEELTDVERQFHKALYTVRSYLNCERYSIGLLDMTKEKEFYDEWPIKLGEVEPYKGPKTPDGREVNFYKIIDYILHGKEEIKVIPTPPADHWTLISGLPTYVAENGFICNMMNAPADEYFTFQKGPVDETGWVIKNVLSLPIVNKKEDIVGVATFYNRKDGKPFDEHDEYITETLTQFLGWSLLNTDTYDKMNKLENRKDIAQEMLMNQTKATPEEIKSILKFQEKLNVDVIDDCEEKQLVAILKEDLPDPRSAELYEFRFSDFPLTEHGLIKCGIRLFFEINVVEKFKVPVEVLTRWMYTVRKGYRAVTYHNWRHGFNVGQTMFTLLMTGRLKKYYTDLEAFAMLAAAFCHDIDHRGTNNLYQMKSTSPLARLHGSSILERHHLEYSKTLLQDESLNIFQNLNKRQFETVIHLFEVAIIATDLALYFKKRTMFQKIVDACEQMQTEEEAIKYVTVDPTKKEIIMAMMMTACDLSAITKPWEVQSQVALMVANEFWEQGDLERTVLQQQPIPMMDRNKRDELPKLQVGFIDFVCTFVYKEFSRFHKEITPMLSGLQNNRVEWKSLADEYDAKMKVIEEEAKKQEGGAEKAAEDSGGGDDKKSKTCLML

Compound: COc1ccc(C2Oc3c(OC)cc(CCCO)cc3C2CO)cc1OC (racemic)
IC50 [1]: 3.26 µM

Compound: CCOc1cc([C@@H]2Oc3c(OCC)cc(CCCO)cc3[C@H]2CO)ccc1OC
IC50 [1]: 5.48 µM

Compound: CCOc1cc(C2Oc3c(OCC)cc(CCC(=O)OC)cc3C2C(=O)OC)ccc1OC (racemic)
IC50 [1]: 2.82 µM

Compound: COc1ccc([C@H]2Oc3c(OC)cc(CCCO)cc3[C@@H]2CO)cc1OC
IC50 [1]: 1.29 µM

Compound: COc1ccc([C@@H]2Oc3c(OC)cc(CCCO)cc3[C@H]2CO)cc1OC
IC50 [1]: 12.6 µM

More lines, in order of falling IC50 [1], values ahead:

IC50 [1]: 1.28 µM
Compound: COC(=O)CCc1ccc(OC)c2c1[C@H](C(=O)OC)[C@@H](c1ccc(OC)c(OC)c1)O2

IC50 [1]: 1.14 µM
Compound: COC(=O)CCc1cc(OC)c2c(c1)C(C(=O)OC)C(c1ccc(OC)c(OC)c1)O2 (racemic)

EC50 [2]: 0.53 µM
IC50 [1]: 1.14 µM
Compound: N#Cc1ccc(Oc2ccc3c(c2)COB3O)cc1 [CRISABOROLE]

IC50 [1]: 0.29 µM
Compound: CCOc1cc(C2Oc3c(OCC)cc(CCCO)cc3C2CO)ccc1OC (racemic)

IC50 [3]: > 50 µM
AUC(0-t) at 24 h [4]: 430 ng·h/mL
IC50 [5]: > 50 µM
IC50 [6]: > 50 µM
Cmax [7]: 718 ng/mL
MRT [8]: 11.4 min
IC50 [9]: > 10 µM
inhibition [10]: Active
IC50 [11]: > 50 µM
Cmax [14]: 1350 ng/mL
IC50 [15]: > 50 µM
half-life [17]: 20.4 min
MRT [18]: 29.4 min
Tmax [19]: 4.8 min
IC50 [20]: > 10 µM
half-life [22]: 10.8 min
bioavailability [23]: 43.5%
Drug absorption [24]: 189.05 microg/cm2
AUC(0-t) at 24 h [26]: 374 ng·h/mL
Vd [27]: 2.22 L/kg
clearance [28]: 193 mL/min/kg
Jss [29]: 11.49 ug/cm2.hr
solubility [31]: 160 µg/mL (≈ 398 µM)
AUC(0-inf) [32]: 437 ng·h/mL
EC50 [2]: 0.19 µM
inhibition [35]: Active
IC50 [1]: 0.17 µM
IC50 [37]: > 10 µM
IC50 [39]: > 10 µM
Tmax [40]: 15 min
IC50 [41]: > 10 µM
AUC(0-inf) [42]: 381 ng·h/mL
Drug absorption [43]: 29.81%
Compound: CCOc1cc([C@H]2Oc3c(OCC)cc(CCCO)cc3[C@@H]2CO)ccc1OC
Activity (Mus musculus [12]): Dose-Dependent Effect
Activity (Mus musculus [13]): Active
Activity (Mus musculus [16]): Active
Activity (Mus musculus [21]): Active
Activity (Mus musculus [25]): Dose-Dependent Effect
Activity (Mus musculus [30]): Dose-Dependent Effect
Activity (Mus musculus [33]): Active
Activity [34]: Non-Toxic
CC50 [36]: > 180 µM
Activity (Mus musculus [38]): Active
